Assay results: patent publication US8637510B2, “Morpholinothiazoles as alpha 7 positive allosteric modulators” (Janssen Pharmaceutica NV, priority 2009, dated 2014)

Experiments:
[1] = molecular target: T1, human alpha 7-wt nAChR-expressing GH4C1 cells (Homo sapiens, UniProt P36544); assay: Patch-clamp current recording (whole-cell voltage-clamp, PAM type classification); type: cell-based; design: key: Type 0 compounds minimally change the effect size of the current elicited by 1 mM choline.; Type 1 compounds enhance the effect size of the current elicited by 1 mM choline but minimally alter the kinetics of the receptor.; Type 2 compounds enhance the effect size of the current elicited by 1 mM choline while reducing the rate and/or the extent of desensitization.; Type 3 compounds enhance the effect size of the current elicited by 1 mM choline. When tested at higher concentrations up to 10 μM they completely inhibit desensitization; Type 4 compounds allow for an initial desensitization of the receptor followed by a re-opening of the receptor during agonist application; conditions: 1 mM choline
T1 construct: expressed in transfected cells
T1 sequence (P36544 23-502): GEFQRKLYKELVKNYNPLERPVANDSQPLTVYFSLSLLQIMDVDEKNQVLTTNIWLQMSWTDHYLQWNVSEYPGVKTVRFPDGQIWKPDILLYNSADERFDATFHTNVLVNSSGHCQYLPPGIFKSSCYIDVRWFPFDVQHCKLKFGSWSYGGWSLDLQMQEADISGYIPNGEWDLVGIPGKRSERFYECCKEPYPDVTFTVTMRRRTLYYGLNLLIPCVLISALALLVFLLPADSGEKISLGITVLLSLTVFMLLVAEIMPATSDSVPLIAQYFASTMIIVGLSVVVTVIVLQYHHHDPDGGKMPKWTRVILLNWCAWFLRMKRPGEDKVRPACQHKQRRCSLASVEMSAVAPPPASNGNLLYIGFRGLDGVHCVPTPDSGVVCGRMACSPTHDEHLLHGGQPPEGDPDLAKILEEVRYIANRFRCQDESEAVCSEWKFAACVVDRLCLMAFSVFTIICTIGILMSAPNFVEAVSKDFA
Outline: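 Whole-cell voltage clamp of GH4C1 cells stably expressing human wild-type α7 nAChR, with compound co-applied with 1 mM choline via rapid (<100 ms) solution switching; external pH 7.3, CsCl-based internal solution, 1.5-3 MΩ electrodes. PAM type (0-4) assigned from current kinetics when peak potentiation reached ≥200% of control choline response.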

SMILES | melting point [°C] | PAM_Type PAM type [1]
Cc1cc(-c2sc(N3C[C@@H](C)O[C@@H](C)C3)nc2CNC(=O)CC2CC2)cc(C)n1 [Compound 1, N-[[2-[(2R,6S)-2,6-dimethyl-4-morpholinyl]-5-(2,6-dimethyl-4-pyridinyl)-4-thiazolyl]methyl]-cyclopropaneacetamide] | 174 | 2
Cc1cc(-c2sc(N3C[C@@H](C)O[C@@H](C)C3)nc2CNC(=O)c2conc2C)cc(C)n1 [Compound 18, N-[[2-[(2R,6S)-2,6-dimethyl-4-morpholinyl]-5-(2,6-dimethyl-4-pyridinyl)-4-thiazolyl]methyl]-3-methyl-4-isoxazolecarboxamide] | 141 | 2
